Experimental data from PMC10721329, “Quisinostat is a brain-penetrant radiosensitizer in glioblastoma” (JCI Insight, 2023).
Values joined by “and” are separate entries in the source; they are usually repeats but may differ in a detail not shown here. Identical values can stand only once. Like-named read-outs stand apart in the source and are kept apart here.

Legend:
HDAC2 = system: HDAC2; parameters: method as in PMID 32608981; conditions: cited from earlier work
[1] = Total and unbound QST in tumor and contralateral brain at survival end point, orthotopic GB126 PDX; type: in vivo; conditions: for UNBOUND [QST], Brain / UNBOUND [QST], Plasma / UNBOUND [QST], Tumor: individual mice; for concentration at 3 h: athymic nude, mouse
Method: All mice included in the survival study were processed for end-point PK and PD analyses once moribund. Plasma, tumor, and contralateral brain tissues were harvested 3 hours after dosing with 10 mg/kg QST, allowing for direct comparison of long-term treatment with the PK-PD data collected from acute (1-week) treatment with QST or combination therapy (Figure 8A). […] There were no significant differences in total or unbound drug concentrations in tumor or brain tissue between the monotherapy or combination therapy cohorts (Figure 8, E and F). Immunoblot analysis of dissected tumor samples confirmed that QST induced substantial histone H3 hyperacetylation in brain tumors, compared with untreated animals, consistent with an in vivo on-target effect (Figure 9, A and B).
QST concentrations in specimens were measured using reverse-phase LC on the AB SCIEX QTRAP6500+ LC-MS/MS system by operating electrospray in the positive ion mode. For liquid chromatographic separation, gradient elution was performed using a Phenomenex Kinetex F5 100 Å column (100 × 2.1 mm, 2.6 μm). The initial composition of the mobile phase was 70% phase A (0.1% formic acid in water) and 30% phase B (0.1% formic acid in 1:1 acetonitrile/methanol) with a 0.35 mL/min flow rate. Gradient elution was achieved as follows: mobile phase (B) was maintained at 30% from 0 to 0.3 minutes, increased to 95% from 0.3 to 0.8 minutes, maintained at 95% from 0.8 to 2.5 minutes, and decreased to 30% from 2.5 to 2.8 minutes. The total run time was 3.5 minutes. The internal standard used in this study was D8-infigratinib. The retention times for QST and D8-infigratinib were 1.6 and 1.8 minutes, respectively. Mass-to-charge ratio transitions were as follows: 395.20 → 144.00 (QST) and 568.08 → 321.00 (D8-infigratinib). LC-MS/MS analysis was performed using an Analyst 1.7 Chromatographic Data System. See Supplemental Methods for detailed PK experiments.
Gy on MWF for a total of 6 Gy in the first week of treatment. Treatment groups included vehicle (50% PEG-3000), QST (10 mg/kg) alone, 6 Gy whole-brain IR treatment with vehicle, and 6 Gy whole-brain IR treatment with 10 mg/kg QST. QST was administered to mice through intraperitoneal injections two hours prior to whole-brain radiation treatment. Upon completion of the radiation regimen, IR-treated mice subsequently received QST or vehicle alone for the rest of the experiment. Tumor growth and treatment response was monitored by IVIS bioluminescence […]
once per week. […]
Tissue from the hemisphere contralateral to the tumor was also collected as a normal brain/nontumor reference sample. For PK analyses, the mice were anesthetized with isoflurane, and at least 300 μL of blood was drawn from the right ventricle of the heart. The blood was collected in tubes containing 10 μL of 0.1 M KOH in EDTA to prevent blood coagulation. Blood samples were immediately centrifuged at 3000 rpm for 10 minutes at 4 °C to allow separation of plasma. After collection of the blood, the tumor was dissected out of the brain and flash -frozen.
Both plasma and erythrocytes were flash-frozen for subsequent analysis. […]
vortex-mixed for 10 s and centrifuged at 12000 g at 4 °C for 10 min. A 100-µL aliquot of the supernatant was transferred to an autosampler vial, and 5 µL was injected into the LC-MS/MS system for analysis. Whenever necessary, appropriate dilutions were made to accommodate the analysis of small volume samples.
Brain and Brain Tumor Sample Preparation
Normal brain and brain tumor tissue homogenates were prepared by 1:4 (mass/volume) ratio with PBS. Samples were homogenized under 6.00 m/s speed for 40 seconds with 3 cycles by Bead Ruptor Elite homogenizer (Omni International). Plasma was used as a surrogate matrix for brain/tumor homogenate. Brain homogenate samples from in vivo studies were prepared as described for plasma samples. Analyte and IS were extracted by protein precipitation with methanol containing IS. After centrifugation at 12000 rpm for 10 minutes at 4 °C, 5 µL of […]

GB126 cells = experiment: Ki67 / cleaved caspase-3 immunofluorescence; type: cell-based, human; conditions: QST at IC50, 72 hours, replicates
Method: (§1) Cells were grown as adherent cultures on laminin -coated glass coverslips (Thermo Fisher Scientific) in GSC media. Twenty-four hours after plating, the cells were treated with QST or DMSO diluted in GSC media. Seventy-two hours after treatment, cells were fixed with 4% paraformaldehyde for 13 minutes at room temperature. Cells were washed with phosphate-buffered saline (PBS) and subsequently permeabilized and blocked with 5% normal goat serum (Sigma Aldrich) and 0.2% Triton X -100 in PBS (blocking solution) for 30 minutes at room temperature. The cells were incubated with primary antibodies overnight a t 4 °C in blocking solution. Primary antibodies used in this study included rabbit anti -Ki67 (1:1000; Abcam, 15580), rabbit anti-Cleaved Caspase 3 (1:400; Cell Signaling Technologies, 9661), rabbit anti - gamma H2AX (phospho Ser139; 1:1000, Abcam, ab11174), and mouse anti-human Nestin (1:500; Novus Biologicals, 10C2). The following day, the cells were washed with PBS 3 times, incubated with fluorophore-conjugated secondary antibodies at 1: 1000 dilutions (Alexa Fluor […]
(§2) for 1 hour at room temperature, and washed in PBS 3 more times. Cells were mounted onto […]
(§3) SuperFrost Plus microscope slides using Fluoroshield Mounting Medium containing DAPI (Abcam). Images were acquired using a confocal microscope (Leica Microsystems; TCS SP5) operated with Leica Application Suite software. The fraction of Ki67- and Cleaved Caspase 3– positive cells were counted from 5 independent images from each condition. The mean and standard deviation were calculated from 3 biological replicates for all control and QST-treated […]
(§4) Analysis of immunostaining of cultured GSCs was performed on confocal stacks (with a step size of 0.5–1.5 μm) acquired with either a 20× water-immersion objective or a 63× oil-immersion objective on a laser-scanning confocal microscope (Leica Microsystems; TCS SP5) operated with Leica Application Suite software. All images were processed using ImageJ software (National Institutes of Health). […]
(§5) mL of ice cold 70% ethanol, added dropwise while vortexing. Cells were fixed on ice for 30 minutes and washed twice with 1× PBS. Cells were then resuspended in 500 μL of propidium iodide/RNAse staining buffer (BD Biosciences, 550825) for 15 minutes at room temperature before analysis. Data from all the samples were obtained using a Fortessa flow cytometer (BD […]

BT145 cells = experiment: Ki67 / cleaved caspase-3 immunofluorescence; type: cell-based, human; conditions: QST at IC50, 72 hours, replicates
Method: as §1, §2, §3, §4, §5

With `Cn1cc(CNCC2CCN(c3ncc(C(=O)NO)cn3)CC2)c2ccccc21` [QST, quisinostat] as the compound, how does the IC50 (HDAC2) read?
The IC50 was […].

What about the “UNBOUND [QST], Brain” value ([1]; Combination (QST + IR) cohort) of the same compound?
Its value is 3.62 nM and 1.48 nM and 2.18 nM.

And the “UNBOUND [QST], Plasma” value ([1]; Combination (QST + IR) cohort)?
Its value is 158.39 nM and 19.58 nM and 43.86 nM.

What about the “UNBOUND [QST], Tumor” value ([1]; Combination (QST + IR) cohort) of the same compound?
The value was 66.7 nM and 35.51 nM and 128.5 nM and 21.89 nM and 23.43 nM.

And the “UNBOUND [QST], Brain” value ([1]; QST cohort)?
Its value is 1.049 nM and 4.404 nM and 6.584 nM and 1.529 nM.

And the “UNBOUND [QST], Plasma” value ([1]; QST cohort)?
Its value is 35.734 nM and 100.413 nM and 74.395 nM and 209.24 nM.

And the “UNBOUND [QST], Tumor” value ([1]; QST cohort)?
Its value is 93.34 nM and 77.02 nM and 33.36 nM and 81.88 nM.

What about the concentration at 3 h ([1]; brain (contralateral to tumor), intraperitoneal, 10 mg/kg, Combo cohort, mean, read-out: Total QST, Brain, Mean) of the same compound?
The concentration at 3 h was 48.5 nM.

And the concentration at 3 h ([1]; brain (contralateral to tumor), intraperitoneal, 10 mg/kg, Combo cohort, mean, read-out: Unbound QST, Brain, Mean)?
The concentration at 3 h was 2.42 nM.

And the concentration at 3 h ([1]; brain (contralateral to tumor), intraperitoneal, 10 mg/kg, QST cohort, mean, read-out: Total QST, Brain, Mean)?
Its concentration at 3 h is 67.8 nM.

What about the concentration at 3 h ([1]; brain (contralateral to tumor), intraperitoneal, 10 mg/kg, QST cohort, mean, read-out: Unbound QST, Brain, Mean) of the same compound?
Its concentration at 3 h is 3.39 nM.

And the concentration at 3 h ([1]; in vivo, orthotopic GB126, end point (moribund), 3 hours after 10 mg/kg, read-out: unbound QST in tumors, mean)?
Its concentration at 3 h is 71.4 nM.

And the concentration at 3 h ([1]; peritumoral (contralateral) brain tissue, intraperitoneal, 10 mg/kg, orthotopic GB126, end point (moribund), 3 hours after 10 mg/kg, read-out: unbound QST in peritumoral brain tissue, mean)?
The concentration at 3 h was 3.4 nM.

What about the concentration at 3 h ([1]; plasma, intraperitoneal, 10 mg/kg, Combo cohort, mean, read-out: Total QST, Plasma, Mean) of the same compound?
Its concentration at 3 h is 141 nM.

And the concentration at 3 h ([1]; plasma, intraperitoneal, 10 mg/kg, Combo cohort, mean, read-out: Unbound QST, Plasma, Mean)?
Its concentration at 3 h is 55.7 nM.

And the concentration at 3 h ([1]; plasma, intraperitoneal, 10 mg/kg, QST cohort, mean, read-out: Total QST, Plasma, Mean)?
The concentration at 3 h was 265 nM.

And the concentration at 3 h ([1]; plasma, intraperitoneal, 10 mg/kg, QST cohort, mean, read-out: Unbound QST, Plasma, Mean)?
Its concentration at 3 h is 105 nM.

And the concentration at 3 h ([1]; tumor, intraperitoneal, 10 mg/kg, Combo cohort, mean, read-out: Total QST, Tumor, Mean)?
The concentration at 3 h was 1100 nM.

And the concentration at 3 h ([1]; tumor, intraperitoneal, 10 mg/kg, Combo cohort, mean, read-out: Unbound QST, Tumor, Mean)?
The concentration at 3 h was 55.2 nM.

What about the concentration at 3 h ([1]; tumor, intraperitoneal, 10 mg/kg, QST cohort, mean, read-out: Total QST, Tumor, Mean) of the same compound?
Its concentration at 3 h is 1430 nM.

And the concentration at 3 h ([1]; tumor, intraperitoneal, 10 mg/kg, QST cohort, mean, read-out: Unbound QST, Tumor, Mean)?
Its concentration at 3 h is 71.4 nM.

What about the “% CC-3 + / DAPI” value (GB126 cells) of the same compound?
The value was 18.5009% and 22.4947% and 8.724%.

And the “% Ki67+ / DAPI” value (GB126 cells)?
Its value is 8.013% and 11.9177% and 10.7184%.

What about the “% CC-3 + / DAPI” value (BT145 cells) of the same compound?
The value was 11.8845% and 6.461% and 13.5339%.

And the “% Ki67+ / DAPI” value (BT145 cells)?
Its value is 26.1653% and 29.1973% and 26.725%.
